We go through 38 compounds from patent US11802128B2, “Azetidine and pyrrolidine PARP1 inhibitors and uses thereof” (Xinthera, Inc., priority 2021, dated 2023).

In experiment [1] the test system is DLD-1 BRCA2(−/−) cells. The experiment can be described thus: Cell growth inhibition assay (CellTiter-Glo cell viability, 7 days). Format: cell-based. To be noted: Homo sapiens, 168 h. The source says:
(§1) The objective of this study is to evaluate the effect of invention compounds on cell proliferation through the cell viability assay in DLD-1 BRCA2(−/−) and parental isogenic pair and MDA-MB-436 (mutated BRCA1) cell lines. The CellTiter-Glo (CTG) based cell viability assay is designed to determine the number of viable cells in the culture because of compound effect, by quantifying ATP, which indicates the presence of metabolically active cells.
(§2) DLD-1 BRCA2(−/−) and parental isogenic pair were cultured in RPMI 1640 supplemented with 10% fetal bovine serum (FBS), and MDA-MB-436 cells were cultured in DMEM supplemented with 10% FBS. Both are culture at 37° C. with 5% CO2. Invention compounds were distributed to the 384 well plate (Corning, 3764) using Echo acoustic liquid handler to form a 1:3 serially diluted final concentration with top dose of 10 or 30 μM. The cells were seeded into the plate in the density of 50 cells/well (DLD-1 parental), 200 cells/well (DLD-1 BRCA2−/−), or 500 cells/well (MDA-MB-436). After a short spun, the cells were cultured in a well moisturized incubator at 37° C. with 5% CO2 for 7 days without disturbance. The cell viability was measured by CellTiter Glo 2.0 assay kit (Promega, G9243), and growth inhibition rate was calculated and plotted against final compound concentration, and the data were fitted in Xfit to generate IC50.
(ATP-based viability assays read luminescence as a measure of living cells.)

For experiment [2], the system named is MDA-MB-436 (mutated BRCA1) cells. The description is as above. Format: cell-based. To be noted: Homo sapiens, 168 h, MDA-MB-436, 7 days.
Text: as §1, §2

As a reminder, the EC50 is the concentration at which the effect is half-maximal. Higher therefore signals a less potent agent. As to `CCc1cc2ncc(CN3CC[C@H](Oc4ccc(C(=O)NC)nc4)C3)cc2[nH]c1=O` [Example 1, 5-{[(3S)-1-[(7-ethyl-6-oxo-5H-1,5-naphthyridin-3-yl)methyl]pyrrolidin-3-yl]oxy}-N-methylpyridine-2-carboxamide], the EC50 in experiment [1] and in experiment [2] was more than 1000 nM throughout.
On to `CCc1cc2ncc(CN3C[C@@H](F)[C@H](Oc4ccc(C(=O)NC)nc4)C3)cc2[nH]c1=O` [Example 5, 5-{[(3R,4R)-1-[(7-ethyl-6-oxo-5H-1,5-naphthyridin-3-yl)methyl]-4-fluoropyrrolidin-3-yl]oxy}-N-methylpyridine-2-carboxamide], for which the EC50 in experiment [1] and in experiment [2] was more than 1000 nM each time.
As for `CCc1cc2ncc(CN3C[C@H](Oc4ccc(C(=O)NC)nc4)[C@@H](F)C3)cc2[nH]c1=O` [Example 6, 5-(((3S,4S)-1-((7-ethyl-6-oxo-5,6-dihydro-1,5-naphthyridin-3-yl)methyl)-4-fluoropyrrolidin-3-yl)oxy)-N-methylpicolinamide], the EC50 was found to be 73 nM in experiment [1] and 42 nM in experiment [2].
Consider `CCc1cc2ncc(CN3C[C@H](F)[C@H](Oc4ccc(C(=O)NC)nc4)C3)cc2[nH]c1=O` [Example 8, 5-{[(3R,4S)-1-[(7-ethyl-6-oxo-5H-1,5-naphthyridin-3-yl)methyl]-4-fluoropyrrolidin-3-yl]oxy}-N-methylpyridine-2-carboxamide], for which the EC50 in experiment [1] was more than 1000 nM.
Regarding `CCc1cc2ncc(CN3C[C@@H](F)[C@@H](Oc4ccc(C(=O)NC)nc4)C3)cc2[nH]c1=O` [Example 9, 5-(((3S,4R)-1-((7-ethyl-6-oxo-5,6-dihydro-1,5-naphthyridin-3-yl)methyl)-4-fluoropyrrolidin-3-yl)oxy)-N-methylpicolinamide], the EC50 worked out at 72 nM in experiment [1] and 25 nM in experiment [2].
On the same counts, the results for `CCc1cc2ncc(CN3CC[C@@H](N(C)c4ccc(C(=O)NC)nc4)C3)cc2[nH]c1=O` [Example 11, 5-{[(3R)-1-[(7-ethyl-6-oxo-5H-1,5-naphthyridin-3-yl)methyl]pyrrolidin-3-yl](methyl)amino}-N-methylpyridine-2-carboxamide] are 28 nM and 19 nM.
For the compound `CCc1cc2ncc(CN3CC[C@@H](Cc4ccc(C(=O)NC)nc4)C3)cc2[nH]c1=O` [Example 13, 5-{[(3R)-1-[(7-ethyl-6-oxo-5H-1,5-naphthyridin-3-yl)methyl]pyrrolidin-3-yl]methyl}-N-methylpyridine-2-carboxamide], the EC50 in experiment [1] was 38 nM; in experiment [2], 12 nM.
For `CCc1cc2ncc(CN3CC(C)(Oc4ccc(C(=O)NC)nc4)C3)cc2[nH]c1=O` [Example 15, 5-({1-[(7-ethyl-6-oxo-5H-1,5-naphthyridin-3-yl)methyl]-3-methylazetidin-3-yl}oxy)-N-methylpyridine-2-carboxamide], the EC50 in experiment [1] is more than 1000 nM.
As for `CNC(=O)c1ccc(OC2CN(Cc3cnc4cc(C5CC5)c(=O)[nH]c4c3)C2)cn1` [Example 16, 5-({1-[(7-cyclopropyl-6-oxo-5H-1,5-naphthyridin-3-yl)methyl]azetidin-3-yl}oxy)-N-methylpyridine-2-carboxamide], the EC50 in experiment [1] was 49 nM; in experiment [2], 18 nM.
On the same counts, the results for `CCc1cc2ncc(CN3C[C@@H](Oc4ccc(C(=O)NC)nc4)[C@@H]3C)cc2[nH]c1=O` [Example 18, 5-{[(2S,3R)-1-[(7-ethyl-6-oxo-5H-1,5-naphthyridin-3-yl)methyl]-2-methylazetidin-3-yl]oxy}-N-methylpyridine-2-carboxamide] are more than 1000 nM and more than 1000 nM.
On to `CCc1cc2ncc(CN3C[C@@H](Oc4ccc(C(=O)NC)nc4)[C@H]3C)cc2[nH]c1=O` [Example 19, 5-{[(2R,3R)-1-[(7-ethyl-6-oxo-5H-1,5-naphthyridin-3-yl)methyl]-2-methylazetidin-3-yl]oxy}-N-methylpyridine-2-carboxamide], for which the EC50 in experiment [1] and in experiment [2] was more than 1000 nM each time.
For the compound `CCc1cc2ncc(CN3C[C@H](Oc4ccc(F)cc4C#N)[C@H]3C)cc2[nH]c1=O` [Example 65], the EC50 in experiment [1] was 93 nM; in experiment [2], 91 nM.
As for `CCNC(=O)c1ccc(O[C@H]2CN(Cc3cnc4cc(CC)c(=O)[nH]c4c3)[C@@H]2C)cn1` [Example 67], the EC50 worked out at 0.97 nM in experiment [1] and 0.65 nM in experiment [2].
As for `CCc1cc2ncc(CN3C[C@H](Oc4ccc(C#N)c(F)c4)[C@H]3C)cc2[nH]c1=O` [Example 68], the EC50 in experiment [1] was 15 nM; in experiment [2] it was 18 nM.
Taken in the same sequence, the figures for `CCc1cc2ncc(CN3C[C@H](Oc4ccc(C#N)cc4F)[C@H]3C)cc2[nH]c1=O` [Example 69] were 11 nM and 5.6 nM.
Taken in the same sequence, the figures for `[2H]C([2H])(c1cnc2cc(CC)c(=O)[nH]c2c1)N1C[C@H](Oc2ccc(C(=O)NC3CC3)nc2)[C@H]1C` [Example 71] were 0.89 nM and 0.49 nM.
On the same counts, the results for `CCc1cc2ncc(CN3C[C@H](Oc4ccc(C#N)cc4C#N)[C@H]3C)cc2[nH]c1=O` [Example 72] are 33 nM and 50 nM.
Consider `C[C@@H]1[C@@H](Oc2ccc(C#N)nc2)CN1Cc1cnc2cc(Cl)c(=O)[nH]c2c1` [Example 78], for which the EC50 in experiment [1] was found to be 32 nM; in experiment [2] it was 35 nM.
As for `CCc1cc2ncc(CN3C[C@H](Oc4ccc(C(=O)NC5CC5)nc4C#N)[C@H]3C)cc2[nH]c1=O` [Example 79], the results for the EC50 in experiment [1] and in experiment [2] were 6.3 nM and 1.9 nM, respectively.
Taken in the same sequence, the figures for `Cc1cc2ncc(CN3C[C@H](Oc4ccc(C(=O)N[C@H]5C[C@@H](F)C5)nc4)[C@H]3C)cc2[nH]c1=O` [Example 81] were 3 nM and 1.7 nM.
Taken in the same sequence, the figures for `CCc1cc2ncc(CN3C[C@H](n4ccc5nc(C#N)ccc54)[C@H]3C)cc2[nH]c1=O` [Example 83] were 22 nM and 11 nM.
Taken in the same sequence, the figures for `Cc1cc2ncc(CN3C[C@H](Oc4ccc(C(=O)NC5CCC5)nc4)[C@H]3C)cc2[nH]c1=O` [Example 85] were 1.8 nM and 1.3 nM.
As for `CCc1cc2ncc(CN3C[C@H](n4ccc5nc(C(=O)NC6CC6)ccc54)[C@H]3C)cc2[nH]c1=O` [Example 86], the results for the EC50 in experiment [1] and in experiment [2] were 3.4 nM and 1.8 nM, respectively.
Taken in the same sequence, the figures for `CNC(=O)c1ccc2c(ccn2[C@H]2CN(Cc3ccc4[nH]c(=O)c(C5CC5)cc4n3)[C@@H]2C)n1` [Example 87] were 20 nM and 12 nM.
Taken in the same sequence, the figures for `CCNC(=O)c1ccc2c(ccn2[C@H]2CN(Cc3cnc4cc(CC)c(=O)[nH]c4c3)[C@@H]2C)n1` [Example 88] were 6.3 nM and 3.4 nM.
On the same counts, the results for `C[C@@H]1[C@@H](Oc2ccc(C(=O)NC3CCC3)nc2)CN1Cc1cnc2cc(C(F)F)c(=O)[nH]c2c1` [Example 92] are 1.6 nM and 1.1 nM.
Consider `CCc1nc2ccc(CN3C[C@H](Oc4ccc(C(=O)NC)nc4)[C@H]3C)c(F)c2[nH]c1=O` [Example 93], for which the results for the EC50 in experiment [1] and in experiment [2] were 7.2 nM and 5 nM, respectively.
On the same counts, the results for `Cc1nc2ccc(CN3C[C@H](Oc4ccc(C(=O)NC5CC5)nc4)[C@H]3C)c(F)c2[nH]c1=O` [Example 94] are 43 nM and 11 nM.
On the same counts, the results for `CCc1nc2ccc(CN3C[C@H](Oc4ccc(C(=O)NC5CC5)nc4)[C@H]3C)c(F)c2[nH]c1=O` [Example 95] are 3.5 nM and 3.2 nM.
On the same counts, the results for `CNC(=O)c1ccc2c(ccn2[C@H]2CN(Cc3ccc4nc(C)c(=O)[nH]c4c3F)[C@@H]2C)n1` [Example 96] are more than 1000 nM and more than 1000 nM.
For `CNC(=O)c1ccc(O[C@H]2CN(Cc3ccc4nc(C5CC5)c(=O)[nH]c4c3F)[C@@H]2C)cn1` [Example 97], the EC50 in experiment [1] turned out to be 34 nM; in experiment [2], 21 nM.
Taken in the same sequence, the figures for `CNC(=O)c1ccc(O[C@H]2CN(Cc3ccc4nc(C)c(=O)[nH]c4c3F)[C@@H]2C)c(F)n1` [Example 98] were 61 nM and 29 nM.
On the same counts, the results for `C[C@@H]1[C@@H](Oc2ccc(C(=O)NC3CC3)nc2)CN1Cc1ccc2cc(Cl)c(=O)[nH]c2c1F` [Example 99] are 4 nM and 1.7 nM.
For the compound `CCc1nc2ccc(CN3C[C@H](Oc4ccc(C(=O)NC)nc4F)[C@H]3C)c(F)c2[nH]c1=O` [Example 100], the EC50 in experiment [1] was 11 nM; in experiment [2], 5.9 nM.
On the same counts, the results for `CCc1nc2ccc(CN3C[C@H](Oc4ccc(C(=O)NC5CC5)nc4F)[C@H]3C)c(F)c2[nH]c1=O` [Example 101] are 5.4 nM and 3.1 nM.
Regarding `CNC(=O)c1ccc(O[C@H]2CN(Cc3cc(F)c4nc(C)c(=O)[nH]c4c3F)[C@@H]2C)cn1` [Example 102], the EC50 in experiment [1] was 49 nM; in experiment [2], 110 nM.
On the same counts, the results for `Cc1nc2ccc(CN3C[C@H](Oc4ccc(C(=O)NC5CC5)nc4F)[C@H]3C)c(F)c2[nH]c1=O` [Example 103] are 27 nM and 30 nM.
`CCc1cc2ncc(CN3C[C@H](Oc4ccc(C(=O)NC5CC5)nc4F)[C@H]3C)cc2[nH]c1=O` [Example 104]: the EC50 was 1.9 nM in experiment [1] and 0.85 nM in experiment [2].
